The source of these data is article PMC11618052, “Design, synthesis, and antiproliferative activity of new 1,2,3-triazole/quinazoline-4-one hybrids as dual EGFR/BRAF^V600E inhibitors” (RSC Advances, 2024).

One series concerns colon cancer (HT-29). Nature of the series: Antiproliferative MTT assay, HT-29. The conditions noted are these: Homo sapiens, HT-29 colon cancer cells, read-out: Antiproliferative activity IC50 ± SEM, HT-29. Format: cell-based. The method, then: (§1) The median inhibitory concentration (IC50) and GI50 (mean IC50) for the four cancer cell lines were calculated. Appendix A ^† contains more details. […]

Series [1] deals with four human cancer cell lines (A-549, MCF-7, Panc-1, HT-29). Kind of series: Antiproliferative MTT assay, mean over the four cancer cell lines. Conditions: mean IC50 over A-549, MCF-7, Panc-1, HT-29. It is filed as cell-based. The procedure: as §1
Series [2] is described as follows: Cell viability MTT assay on MCF-10A normal cells. It is filed as cell-based. The conditions noted are these: human, MCF-10A normal mammary gland epithelial cells, MCF-10A cells, four days of incubation. The method, then: The viability of new compounds 8a–t was evaluated using the MCF-10A normal human mammary gland epithelial cell line. The cell viability of compounds 8a–t was examined using the MTT assay[36] after four days of incubation with MCF-10A cells. For more details, see Appendix A (ESI file). ^† […]
We evaluated the viability of new compounds 8a–t using the MCF-10A normal human mammary gland epithelial cell line. The cell viability of compounds 8a–t was examined using the MTT assay[36] after four days of incubation with MCF-10A cells.
4.2. Biological evaluation
4.2.1. Cytotoxic activity using MTT Assay and evaluation of IC 50
MTT assay was carried out to study the effect of compounds on mammary epithelial cells (MCF-10A). The medium in which cells were propagated contained Dulbecco's modified Eagle's medium (DMEM)/ Ham's F-12 medium (1:1) supplemented with epidermal growth factor (20 ng/mL), hydrocortisone (500 ng/mL), insulin (10 μg/mL), 2 mM glutamine and 10% foetal calf serum.
After every 2-3 days, the cells were passaged using trypsin ethylenediamine tetra acetic acid (EDTA). The cells were seeded at a density of 10^4 cells mL-1 in flat-bottomed culture plates containing 96 wells each. After 24 h, medium was removed from the plates and the compounds in (in 0.1% DMSO) were added (in 200 μL medium to yield a final concentration of 0.1% v/v) to the wells of plates. A single compound was designated with four wells followed by incubation of plates for 96h at 37°C. After incubation, medium was removed completely from the plates followed by addition of MTT (0.4 mg/mL in medium) to each well and subsequent incubation of plates for 3h. MTT (along with the medium) was removed and DMSO (150μL) was added to each well of the culture plates, followed by vortexing and subsequent measurement of absorbance (at 540 nm) using microplate reader. The data are shown as percentage inhibition of proliferation in comparison with controls containing 0.1% DMSO. […]

The next series concerns the target BRAF^V600E. Kind of series: BRAF^V600E kinase inhibitory assay.
Series [3] has as its system pancreatic cancer (Panc-1). Nature of the series: Antiproliferative MTT assay, Panc-1. Format: cell-based. The conditions noted are these: Homo sapiens, Panc-1 pancreatic cancer cells, read-out: Antiproliferative activity IC50 ± SEM, Panc-1. The method, then:
as §1
In general terms: Formazan colour is commonly taken as a measure of viable cells.

For a further series, the system named is breast cancer (MCF-7). Kind of series: Antiproliferative MTT assay, MCF-7. It is filed as cell-based. Conditions: Homo sapiens, MCF7, MCF-7 breast cancer cells, read-out: Antiproliferative activity IC50 ± SEM, MCF-7. The procedure: as §1
For the next series, the system named is lung cancer (A-549). Nature of the series: Antiproliferative MTT assay, A-549. Format: cell-based. Conditions: Homo sapiens, A549, A-549 lung cancer cells, read-out: Antiproliferative activity IC50 ± SEM, A-549. The method, then:
as §1

Another series addresses T1, EGFR (Homo sapiens, UniProt P00533).
T1 construct: 645–1186; His6 (N); made in house; host or cells: Sf-9 insect cells (baculovirus; pBlueBacHis2B / pFASTBacHTc)
Nature of the series: EGFR-TK inhibitory assay. Format: biochemical. Conditions: read-out: EGFR inhibition IC50 ± SEM. The procedure: Sf-9 cells were infected for 72h for protein expression. […]
centrifugation for 20 min.
Histidine-linked proteins were first eluted with 250 and then […]
using wash buffer. Europium-tagged antiphosphotyrosine antibody (75 µL, 400 ng) was added to each well followed by incubation of 1h and then washing of the plates using buffer. The enhancement solution was added to each well and the signal was recorded at excitation and […]
The autophosphorylation percentage inhibition by compounds was calculated using the following equation: […]

Sequence of BRAF^V600E (P28028 whole entry V585E): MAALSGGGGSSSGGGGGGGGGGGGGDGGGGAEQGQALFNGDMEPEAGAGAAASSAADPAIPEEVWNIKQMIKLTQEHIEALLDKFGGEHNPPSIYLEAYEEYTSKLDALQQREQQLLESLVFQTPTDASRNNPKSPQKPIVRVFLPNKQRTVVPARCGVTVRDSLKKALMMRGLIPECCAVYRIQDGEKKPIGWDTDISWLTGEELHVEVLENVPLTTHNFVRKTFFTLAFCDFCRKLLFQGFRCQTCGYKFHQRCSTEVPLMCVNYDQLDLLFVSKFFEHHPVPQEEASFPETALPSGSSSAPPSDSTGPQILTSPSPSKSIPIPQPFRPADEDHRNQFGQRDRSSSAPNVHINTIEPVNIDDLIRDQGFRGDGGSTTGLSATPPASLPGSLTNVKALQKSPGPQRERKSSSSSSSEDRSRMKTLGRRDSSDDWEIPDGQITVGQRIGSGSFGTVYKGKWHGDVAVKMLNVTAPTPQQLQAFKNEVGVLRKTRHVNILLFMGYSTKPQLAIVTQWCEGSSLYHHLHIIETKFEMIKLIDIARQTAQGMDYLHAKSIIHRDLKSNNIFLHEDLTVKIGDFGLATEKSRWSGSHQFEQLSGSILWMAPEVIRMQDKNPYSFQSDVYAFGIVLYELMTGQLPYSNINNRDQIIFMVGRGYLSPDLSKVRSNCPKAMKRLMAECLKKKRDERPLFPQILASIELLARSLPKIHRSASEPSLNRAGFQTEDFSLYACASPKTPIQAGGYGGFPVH
T1 sequence (P00533 669-1210): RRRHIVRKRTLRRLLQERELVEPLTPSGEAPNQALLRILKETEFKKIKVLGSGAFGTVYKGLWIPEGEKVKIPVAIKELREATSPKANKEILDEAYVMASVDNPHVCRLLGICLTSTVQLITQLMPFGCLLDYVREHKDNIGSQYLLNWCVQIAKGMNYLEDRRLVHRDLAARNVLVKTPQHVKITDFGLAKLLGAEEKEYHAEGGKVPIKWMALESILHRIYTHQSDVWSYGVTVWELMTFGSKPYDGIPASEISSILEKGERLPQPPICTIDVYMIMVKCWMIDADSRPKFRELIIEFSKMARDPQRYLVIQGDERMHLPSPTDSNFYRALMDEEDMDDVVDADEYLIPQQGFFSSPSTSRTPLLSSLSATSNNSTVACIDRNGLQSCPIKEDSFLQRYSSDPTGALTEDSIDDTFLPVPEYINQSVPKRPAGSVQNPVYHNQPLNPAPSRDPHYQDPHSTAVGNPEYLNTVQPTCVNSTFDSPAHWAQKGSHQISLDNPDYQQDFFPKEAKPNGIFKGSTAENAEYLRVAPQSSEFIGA
Experimental for BRAF^V600E: V600E mutant BRAF kinase assay was performed to investigate the activity of tested compounds against BRAF. Mouse full-length GST-tagged BRAFV600E (7.5 ng, Invitrogen, PV3849) was pre-incubated with drug (1 µL) and assay dilution buffer (4 µL) for 60 min at 25 °C. In assay dilution buffer, a solution (5 µL) containing MgCl2 (30 mM), ATP (200 µM), recombinant human full length (200 ng) and N-terminal His-tagged MEK1 (Invitrogen) was added to start the assay, subsequent to incubation for 25 min at 25 °C. The assay was stopped using 5X protein denaturing buffer (LDS) solution (5 µL). To further denature the protein, heat (70° C) was applied for 5 min.
10 µL of each reaction was loaded into the precast plates and electrophoresis was allowed to proceed. After completion of electrophoresis, the front part of the precast gel plate (holding hot ATP) was cut and afterwards cast-off. The dried gel was developed using a phosphor screen. A

`Cc1cccc(-n2c(SCc3cn(-c4ccc(Cl)cc4)nn3)nc3ccccc3c2=O)c1` [Compound 8j, 2-(((1-(4-Chlorophenyl)-1H-1,2,3-triazol-4-yl)methyl)thio)-3-(m-tolyl)quinazolin-4(3H)-one]: the IC50 – broadly, the concentration that gives 50% inhibition – in the series on colon cancer (HT-29) stood at 30 ± 2 nM; against BRAF^V600E it was 61 ± 5 nM; in series [3], 31 ± 2 nM; in the series with breast cancer (MCF-7), 26 ± 2 nM; with lung cancer (A-549), 29 ± 2 nM; at EGFR it was 78 ± 5 nM. Further, the 50% growth inhibitory concentration (GI50) (in general, the concentration at which growth is held to half of that of the control) worked out at 33 nM in series [1] (Homo sapiens) and 29 nM in series [1]. The viability (commonly a per cent measure of how many cells are alive, often set against a control) at 4 days, 50 µM in series [2] was found to be 87%.
As for `Cc1ccc(-n2cc(CSc3nc4ccccc4c(=O)n3-c3cccc(C)c3)nn2)cc1` [Compound 8l, 2-(((1-(p-Tolyl)-1H-1,2,3-triazol-4-yl)methyl)thio)-3-(m-tolyl)quinazolin-4(3H)-one], the IC50 in the series with colon cancer (HT-29) was found to be 35 ± 2 nM; on BRAF^V600E it was 64 ± 5 nM; in series [3] it was 36 ± 2 nM; with breast cancer (MCF-7) it was 29 ± 2 nM; in the series on lung cancer (A-549), 33 ± 2 nM; on EGFR, 83 ± 5 nM. Moreover, in series [1] (Homo sapiens), the concentration for 50% growth inhibition (GI50) is 33 nM. In series [2], the viability at 4 days, 50 µM turned out to be 87%.
In the case of `Cc1ccc(-n2c(SCc3cn(-c4ccc(Cl)cc4)nn3)nc3ccccc3c2=O)cc1` [Compound 8f, 2-(((1-(4-Chlorophenyl)-1H-1,2,3-triazol-4-yl)methyl)thio)-3-(p-tolyl)quinazolin-4(3H)-one], the IC50 in the series with colon cancer (HT-29) was determined as 39 ± 3 nM; against BRAF^V600E it was 69 ± 5 nM; in series [3] it was 38 ± 3 nM; in the series on breast cancer (MCF-7), 34 ± 3 nM; with lung cancer (A-549), 37 ± 3 nM; at EGFR, 89 ± 5 nM. In series [1] (Homo sapiens), this compound gave a GI50 of 37 nM. Also, the viability at 4 days, 50 µM in series [2] was determined as 87%.
